Patent US8778975B2, “Helicobacter pylori eradicating agent having inhibitory activity on gastric acid secretion” (Link Geonomics, Inc., priority 2006, dated 2014)
Values joined by “and” are separate entries in the source; they are usually repeats but may differ in a detail not shown here. Equal entries are not always repeated. Where two headings read alike, the source gives them in different places.

How the values were obtained:
[1] = test system: Helicobacter pylori standard strains ATCC 43504, ATCC 43629, ATCC 43570 and clinically separated strains; assay: Anti-Helicobacter pylori activity (MIC), standard and clinically separated strains, Pharmacological Test Example 2; type: cell-based
Experimental: For the bacterium Helicobacter pylori, standard strains ATCC 43504, ATCC 43629 and ATCC 43570 were used to perform in vitro tests in Columbia agar medium. The bacteria were cultured at 37° C. and pH 7.0 for 3 days. On the 4th day, the minimum growth inhibitory concentration (MIC, μg/ml) was determined. Each of the specimens was dissolved in a 1% DMSO solution. Furthermore, amoxicillin and clarithromycin were used as control drugs of antibacterial substance. Further, the compound described in the article of Thomas C. Kuehler (J. Med.

[2] = test system: Helicobacter pylori bacteria (ATCC 43504); assay: Antiulcer action and bacteria eradicating action in Helicobacter pylori-infected Mongolian gerbils; type: in vivo; conditions: for Number of Bacteria (average) (log CFU): gastric mucosa; for responders at 10 mg/kg / responders at 30 mg/kg: Helicobacter pylori
Experimental: Mongolian gerbils were experimentally infected with Helicobacter pylori bacteria, and the antiulcer action and the Helicobacter pylori bacteria eradicating action of the compounds of the present invention were tested.
Male Mongolian gerbils (30 to 40 g), five animals in each group, were orally inoculated with Helicobacter pylori bacteria (ATCC 43504) at 1.6×10^7 CFU/0.5 ml/mouse, and bred for one week, and then drug was administered two times a day for two weeks. Thereafter, the […] were bred for three weeks, and then the rats were fasted for 18 hours and subjected to abdominal section, followed by autopsy. The severity of gastric ulcer, the number of Helicobacter pylori bacteria in the gastric mucosa, and the antibody titer were measured.

[3] = test system: Pseudomonas aeruginosa (ATCC 9027); assay: Antibacterial test (MIC), Gram-negative bacteria; type: cell-based; conditions: ATCC9027, read-out: MIC
Source text: (§1) As for the Gram-negative bacteria, E. coli (ATCC 10536, ATCC 25922), Klebsiella pneumonia (ATCC 10031), Proteus vulgaris (ATCC 13315), Pseudomonas aeruginosa (ATCC 9027), and Salmonella typhimurium (ATCC 13311) were used, and as for the Gram-positive bacteria, Staphylococcus aureus, MRSA (ATCC 33591), Staphylococcus epidermidis (ATCC 12228), Streptococcus pneumonia (ATCC 6301), Mycobacterium ranae (ATCC 110), and Enterococcus faecalis (VRE, ATCC 51575) were used. The various bacteria were cultured at 37° C. for 20 to 48 hours by conventional methods, and the minimum growth inhibitory concentration (MIC, μg/ml) was determined. Each of the specimens was dissolved in a 1% DMSO solution. Furthermore, amoxicillin, clarithromycin and gentamycin were used as control drugs of antibacterial substance.

[4] = test system: Salmonella typhimurium (ATCC 13311); assay: Antibacterial test (MIC), Gram-negative bacteria; type: cell-based; conditions: Salmonella enterica, read-out: MIC
Source text: as §1

[5] = test system: Klebsiella pneumonia (ATCC 10031); assay: Antibacterial test (MIC), Gram-negative bacteria; type: cell-based; conditions: Klebsiella pneumoniae, ATCC10031, read-out: MIC
Source text: as §1

[6] = test system: Proteus vulgaris (ATCC 13315); assay: Antibacterial test (MIC), Gram-negative bacteria; type: cell-based; conditions: ATCC13315, read-out: MIC
Source text: as §1

[7] = test system: Escherichia coli (ATCC 25922); assay: Antibacterial test (MIC), Gram-negative bacteria; type: cell-based; conditions: ATCC25922, read-out: MIC
Source text: as §1

[8] = test system: Escherichia coli (ATCC 10536); assay: Antibacterial test (MIC), Gram-negative bacteria; type: cell-based; conditions: ATCC10536, read-out: MIC
Source text: as §1

[9] = test system: Helicobacter pylori standard strain ATCC 43504; assay: Antibacterial potency test (MIC), Columbia agar medium, Pharmacological Test Example 1; type: cell-based
Experimental: A test was conducted to see whether there is a difference in the anti-Helicobacter pylori activity depending on the number of carbon atoms of the linear alkyl group for a substituent at the 4-position of the pyridine ring.
For the bacterium Helicobacter pylori, a standard strain ATCC 43504 was used to perform in vitro tests in Columbia agar medium. Each of the specimens was dissolved in a 1% DMSO solution, and the bacteria were cultured at 37° C. and pH 7.0 for 3 days. On the 4th day, the minimum growth inhibitory concentration (MIC, μg/ml) was determined.

[10] = test system: Mycobacterium ranae (ATCC 110); assay: Antibacterial test (MIC), Gram-positive bacteria; type: cell-based; conditions: ATCC110, read-out: MIC
Source text: as §1

[11] = test system: Streptococcus pneumonia (ATCC 6301); assay: Antibacterial test (MIC), Gram-positive bacteria; type: cell-based; conditions: Streptococcus pneumoniae, ATCC6301
Source text: as §1

[12] = test system: Staphylococcus aureus, MRSA (ATCC 33591); assay: Antibacterial test (MIC), Gram-positive bacteria; type: cell-based; conditions: read-out: MIC
Source text: as §1

[13] = test system: Enterococcus faecalis (VRE, ATCC 51575); assay: Antibacterial test (MIC), Gram-positive bacteria; type: cell-based
Source text: as §1

[14] = test system: Staphylococcus epidermidis (ATCC 12228); assay: Antibacterial test (MIC), Gram-positive bacteria; type: cell-based; conditions: ATCC12228, read-out: MIC
Source text: as §1

[15] = test system: clinically separated clarithromycin-resistant strains and amoxicillin-insensitive strains of Helicobacter pylori; assay: Antibacterial potency (MIC) against clarithromycin-resistant and amoxicillin-insensitive strains, Pharmacological Test Example 3; type: cell-based; conditions: Helicobacter pylori, read-out: MIC
Experimental: A test was conducted on the antibacterial potency of the compounds of the present invention against the clarithromycin-resistant strains and amoxicillin-insensitive strains of the bacterium Helicobacter pylori.
A test was conducted on the antibacterial potency of the compounds of the present invention, using clinically separated clarithromycin-resistant strains and amoxicillin-insensitive strains of the bacterium Helicobacter pylori. For the respective strains, in vitro tests were performed in Columbia agar medium. Each of the specimens was dissolved in a 1% DMSO solution. The bacteria were cultured at 37° C. and pH 7.0 for 3 days, and on the 4th day, the minimum growth inhibitory concentration (MIC, μg/ml) was determined.

[16] = Clinically separated strain PT1045482
[17] = Clinically separated strain PT1045483
[18] = Clinically separated strain PT1045484
[19] = 30 mg/kg, two times a day for two weeks
[20] = ATCC43504, 336 h, 30 mg/kg, two times a day for two weeks, read-out: Eradication rate (%)
[21] = ATCC43504, 72 h, ATCC 43504, 37° C., pH 7.0, 3 days, read-out: MIC
[22] = ATCC43504, Table 8 summary, strain not stated, read-out: Anti-HP activity (MIC: μg/mL)
[23] = ATCC43504, Table 8, amount of administration (mg) 30, read-out: HP eradication based on Mongolian gerbil infection model: Eradication rate (%)

CCCCCOc1ccnc(CSc2nc3ccccc3[nH]2)c1C [Example 1, 2-[(4-n-pentyloxy-3-methylpyridin-2-yl)-methylthio]-1H-benzimidazole]
0.07: Antibody titer (average) ([2]; 10 mg/kg)
<3 log CFU: Number of Bacteria (average) (log CFU) ([2]; 10 mg/kg) | Number of Bacteria (average) (log CFU) ([2]; 30 mg/kg)
< 0.015 mg/L: MIC ([1]; Standard strain ATCC 43570)
0.06 mg/L: MIC [1, 17] | MIC [1, 18] | MIC ([1]; Standard strain ATCC 43629) | MIC ([15]; AMO-insensitive strain NO. 1) | MIC ([15]; AMO-insensitive strain NO. 2) | MIC ([15]; AMO-insensitive strain NO. 3) | MIC ([15]; AMO-insensitive strain NO. 4) | MIC ([15]; CAM-resistant strain NO. 1) | MIC ([15]; CAM-resistant strain NO. 2) | MIC ([15]; CAM-resistant strain NO. 3) | MIC ([15]; CAM-resistant strain NO. 4)
inhibited generation of ulcer and 0/5: Number of Ulcers discovered ([2]; 10 mg/kg, two times a day for two weeks)
0.1 mg/L: MIC [1, 16] | MIC ([1]; Standard strain ATCC 43504)
> 100 mg/L: MIC [3] | MIC [4] | MIC [5] | MIC [6] | MIC [7] | MIC [8] | MIC [10] | MIC [11] | MIC [12] | MIC [13] | MIC [14]
0.1 µg/mL: MIC [9, 21] | MIC [9, 22]
0.05: Antibody titer (average) ([2]; 30 mg/kg)
0/5: Number of Ulcers discovered [2, 19]
100%: responders at 10 mg/kg ([2]; ATCC43504, 336 h, 10 mg/kg, two times a day for two weeks, read-out: Eradication rate (%)) | responders at 30 mg/kg [2, 20] | responders at 10 mg/kg ([2]; ATCC43504, Table 8, amount of administration (mg) 10, read-out: HP eradication based on Mongolian gerbil infection model: Eradication rate (%))

CCCCCCOc1ccnc(CSc2nc3ccccc3[nH]2)c1C [Example 2, 2-[(4-n-hexyloxy-3-methylpyridin-2-yl)-methylthio]-1H-benzimidazole]
0.03 mg/L: MIC ([1]; Standard strain ATCC 43570)
100%: responders at 30 mg/kg [2, 20] | responders at 30 mg/kg [2, 23]
> 100 mg/L: MIC [3] | MIC [4] | MIC [5] | MIC [6] | MIC [7] | MIC [8] | MIC [10] | MIC [11] | MIC [12] | MIC [13] | MIC [14]
0.17: Antibody titer (average) ([2]; 30 mg/kg)
0.1 µg/mL: MIC [9, 21] | MIC [9, 22]
0.06 mg/L: MIC ([15]; AMO-insensitive strain NO. 1) | MIC ([15]; CAM-resistant strain NO. 1) | MIC ([15]; CAM-resistant strain NO. 2) | MIC ([15]; CAM-resistant strain NO. 3) | MIC ([15]; CAM-resistant strain NO. 4)
0.12 mg/L: MIC ([15]; AMO-insensitive strain NO. 2) | MIC ([15]; AMO-insensitive strain NO. 3) | MIC ([15]; AMO-insensitive strain NO. 4)
<3 log CFU: Number of Bacteria (average) (log CFU) ([2]; 30 mg/kg)
0/5: Number of Ulcers discovered [2, 19]
0.1 mg/L: MIC [1, 16] | MIC [1, 17] | MIC [1, 18] | MIC ([1]; Standard strain ATCC 43504) | MIC ([1]; Standard strain ATCC 43629)

CCCCCCCOc1ccnc(CSc2nc3ccccc3[nH]2)c1C [Example 3, 2-[(4-n-heptyloxy-3-methylpyridin-2-yl)-methylthio]-1H-benzimidazole]
0/5: Number of Ulcers discovered [2, 19]
100%: responders at 30 mg/kg [2, 20] | responders at 30 mg/kg [2, 23]
0.12 mg/L: MIC ([15]; AMO-insensitive strain NO. 1) | MIC ([15]; AMO-insensitive strain NO. 2) | MIC ([15]; AMO-insensitive strain NO. 3)
0.1 µg/mL: MIC [9, 21] | MIC [9, 22]
> 100 mg/L: MIC [3] | MIC [4] | MIC [5] | MIC [6] | MIC [7] | MIC [8] | MIC [10] | MIC [11] | MIC [12] | MIC [13] | MIC [14]
0.1 mg/L: MIC [1, 16] | MIC [1, 17] | MIC [1, 18] | MIC ([1]; Standard strain ATCC 43504) | MIC ([1]; Standard strain ATCC 43570) | MIC ([1]; Standard strain ATCC 43629) | MIC ([15]; CAM-resistant strain NO. 1) | MIC ([15]; CAM-resistant strain NO. 2) | MIC ([15]; CAM-resistant strain NO. 3) | MIC ([15]; CAM-resistant strain NO. 4)
0.22: Antibody titer (average) ([2]; 30 mg/kg)
0.25 mg/L: MIC ([15]; AMO-insensitive strain NO. 4)
<3 log CFU: Number of Bacteria (average) (log CFU) ([2]; 30 mg/kg)
